Patent publication EP3064205A1, “Therapeutic use of isomeric forms of 2-(4-chlorophenyl)quinolin-4-yl)(piperidin-2-yl)methanol” (Glionova AB, priority 2015, dated 2016)
Read-outs that look alike come from different tables or passages of the source.

Columns and labels:
Assay in all cases: 3D clonogenic assay (PDX)
Format in all cases: cell-based, human
CXF 1729 = conditions: CXF 1729, Colorectal; for IC50: Homo sapiens
In short: (§1)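 Using cells isolated from PDX tumors carried in nude mice, inhibition of colony formation in soft agar was measured after 8–13 days of continuous compound exposure (50–0.0015 µM). IC50 values were derived from sigmoidal 4-parameter fits of the automated counts.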

PAXF 2033 = conditions: PAXF 2033, Pancreas; for IC50: Homo sapiens
In short: as §1

BXF 1228 = conditions: BXF 1228, Bladder; for IC50: Homo sapiens
In short: as §1

CXF 1103 = conditions: CXF 1103, Colorectal; for IC50: Homo sapiens, CXF1103
In short: as §1

LXFL 1072 = conditions: LXFL 1072, Lung Large Cell; for IC50: Homo sapiens
In short: as §1

RXF 1781 = conditions: RXF 1781, Renal; for IC50: Homo sapiens
In short: as §1

LXFL 430 = conditions: LXFL 430, Lung Large Cell; for IC50: Homo sapiens
In short: as §1

RXF 631 = conditions: RXF 631, Renal; for IC50: Homo sapiens
In short: as §1

LXFA 526 = conditions: LXFA 526, Lung Adeno; for IC50: Homo sapiens
In short: as §1

CXF 2025 = conditions: CXF 2025, Colorectal; for IC50: Homo sapiens
In short: as §1

MEXF 1765 = conditions: MEXF 1765, Melanoma; for IC50: Homo sapiens
In short: as §1

PAXF 2046 = conditions: PAXF 2046, Pancreas; for IC50: Homo sapiens
In short: as §1

IC50 (CXF 1729; read-out: abs. IC50): 8.87 µM | IC50 (CXF 1729; read-out: rel. IC50): 8.82 µM | IC50 (PAXF 2033; read-out: abs. IC50): 9.19 µM | IC50 (PAXF 2033; read-out: rel. IC50): 8.89 µM | IC50 (BXF 1228; read-out: abs. IC50): 8.12 µM | IC50 (BXF 1228; read-out: rel. IC50): 6.67 µM | IC50 (CXF 1103; read-out: abs. IC50): 11.5 µM | IC50 (CXF 1103; read-out: rel. IC50): 6.47 µM | IC50 (LXFL 1072; read-out: abs. IC50): 7.6 µM | IC50 (LXFL 1072; read-out: rel. IC50): 7.58 µM | IC50 (RXF 1781; read-out: abs. IC50): 11.1 µM | IC50 (RXF 1781; read-out: rel. IC50): 11.1 µM | IC50 (LXFL 430; read-out: abs. IC50): 9.06 µM | IC50 (LXFL 430; read-out: rel. IC50): 8.98 µM | IC50 (RXF 631; read-out: abs. IC50): 24.6 µM | IC50 (RXF 631; read-out: rel. IC50): 28.1 µM | IC50 (LXFA 526; read-out: abs. IC50): 3.23 µM | IC50 (LXFA 526; read-out: rel. IC50): 2.91 µM | IC50 (CXF 2025; read-out: abs. IC50): 8.87 µM | IC50 (CXF 2025; read-out: rel. IC50): 8.61 µM | IC50 (MEXF 1765; read-out: abs. IC50): 8.58 µM | IC50 (MEXF 1765; read-out: rel. IC50): 8.53 µM | IC50 (PAXF 2046; read-out: abs. IC50): 18.6 µM | IC50 (PAXF 2046; read-out: rel. IC50): 9.45 µM
SMILES: O[C@H](c1cc(-c2ccc(Cl)cc2)nc2ccccc12)[C@@H]1CCCCN1 [S1, (R)-(2-(4-chlorophenyl)quinolin-4-yl)((S)-piperidin-2-yl)methanol]
b (bottom plateau of concentration-effect curve) (CXF 1729): 8 | t (top plateau of concentration-effect curve) (CXF 1729): 104 | b (bottom plateau of concentration-effect curve) (PAXF 2033): 27 | t (top plateau of concentration-effect curve) (PAXF 2033): 110 | b (bottom plateau of concentration-effect curve) (BXF 1228): 22 | t (top plateau of concentration-effect curve) (BXF 1228): 98 | b (bottom plateau of concentration-effect curve) (CXF 1103): 47 | t (top plateau of concentration-effect curve) (CXF 1103): 99 | b (bottom plateau of concentration-effect curve) (LXFL 1072): 0 | t (top plateau of concentration-effect curve) (LXFL 1072): 101 | b (bottom plateau of concentration-effect curve) (RXF 1781): 8 | t (top plateau of concentration-effect curve) (RXF 1781): 112 | b (bottom plateau of concentration-effect curve) (LXFL 430): 14 | t (top plateau of concentration-effect curve) (LXFL 430): 99 | b (bottom plateau of concentration-effect curve) (RXF 631): 0 | t (top plateau of concentration-effect curve) (RXF 631): 91 | b (bottom plateau of concentration-effect curve) (LXFA 526): 10 | t (top plateau of concentration-effect curve) (LXFA 526): 96 | b (bottom plateau of concentration-effect curve) (CXF 2025): 33 | t (top plateau of concentration-effect curve) (CXF 2025): 97 | b (bottom plateau of concentration-effect curve) (MEXF 1765): 23 | t (top plateau of concentration-effect curve) (MEXF 1765): 84 | b (bottom plateau of concentration-effect curve) (PAXF 2046): 38 | t (top plateau of concentration-effect curve) (PAXF 2046): 100
